Experimental data: US20070128217A1 (priority 2003, published 2007)

How the values were obtained:
[1] = tested on: control sera (pooled serum of ten healthy LUMC hospital workers; commercial negative donor pooled serum from the Dutch bloodbank); assay type: binding, human; design: Binding of Control serum LUMC to linear peptides / Binding of Control serum Blood-bank to linear peptides / Binding of Control serum LUMC to looped peptides / Binding of Control Serum Blood-Bank to Looped peptides / Binding of Control serum LUMC to linear peptides of the protein M of SARS-CoV Urbani / Binding of Control serum Blood-bank to linear peptides of the protein M of SARS-CoV Urbani / Binding of Control serum LUMC to looped peptides of the protein M of SARS-CoV Urbani / Binding of Control Serum Blood-Bank to Looped peptides of the protein M of SARS-CoV Urbani: unit not given here
[2] = tested on: rabbit serum obtained by immunizing a rabbit with the SARS-CoV strain Frankfurt 1; assay type: binding; design: Binding of a rabbit serum to linear peptides / Binding of a rabbit serum to looped peptides / Rabbit serum linear peptides / Rabbit serum looped peptides / Binding of a rabbit serum to linear peptides of protein N of SARS-CoV Urbani (Rabbit serum linear peptides) / Binding of a rabbit serum to looped/cyclic peptides of protein N of SARS-CoV Urbani (Rabbit serum looped peptides): unit not given here
[3] = tested on: antibodies in sera from SARS patients (sera 1a, 1b, 2, 6, 37, 62, London, SARS-yellow, SARS-green); assay type: binding, human; design: Binding of serum 6 to linear peptides of protein X1 of SARS-CoV Urbani / Binding of serum 37 to linear peptides of protein X1 of SARS-CoV Urbani / Binding of serum 6 to looped/cyclic peptide (PEPSCAN-ELISA) / Binding of serum 37 to looped/cyclic peptide (PEPSCAN-ELISA) / Binding of serum 37 to looped/cyclic peptides of protein X1 of SARS-CoV Urbani / Binding of serum 6 to linear peptides of protein X2 / Binding of serum 37 to linear peptides of protein X2 / Binding of serum 37 to looped/cyclic peptides of protein X2 of SARS-CoV Urbani / Binding of serum 6 to linear peptides of protein M of SARS-CoV Urbani / Binding of serum 37 to linear peptides of protein M of SARS-CoV Urbani / Binding of serum 6 to looped/cyclic peptides of protein M of SARS-CoV Urbani / Binding of serum 37 to looped/cyclic peptides of protein M of SARS-CoV Urbani / Binding of serum 6 to linear peptides of protein X3 of SARS-CoV Urbani / Binding of serum 37 to linear peptides of protein X3 of SARS-CoV Urbani / Binding of serum 37 to looped/cyclic peptides of protein X3 of SARS-CoV Urbani / Binding of serum 6 to linear peptides of protein X4 of SARS-CoV Urbani / Binding of serum 37 to linear peptides of protein X4 of SARS-CoV Urbani / Binding of serum 37 to looped/cyclic peptides of protein X4 of SARS-CoV Urbani / Binding of serum 6 to linear peptides of protein X5 of SARS-CoV Urbani / Binding of serum 37 to linear peptides of protein X5 of SARS-CoV Urbani / Binding of serum 37 to looped/cyclic peptides of protein X5 of SARS-CoV Urbani / Binding of serum 6 to linear peptides of protein N of SARS-CoV Urbani / Binding of serum 37 to linear peptides of protein N of SARS-CoV Urbani / Binding of serum 6 to linear peptide (PEPSCAN-ELISA) / Binding of serum 1a to looped/cyclic peptides of protein N of SARS-CoV Urbani / Binding of serum 1b to looped/cyclic peptides of protein N of SARS-CoV Urbani / Binding of serum 2 to looped/cyclic peptides of protein N of SARS-CoV Urbani / Binding of serum 6 to looped/cyclic peptides of protein N of SARS-CoV Urbani / Binding of serum 37 to looped/cyclic peptides of protein N of SARS-CoV Urbani / Binding of serum 62 to looped/cyclic peptides of protein N of SARS-CoV Urbani / Binding of serum London to looped/cyclic peptides of protein N of SARS-CoV Urbani / Binding of serum SARS-green to looped/cyclic peptides of protein N of SARS-CoV Urbani: unit not given here

## YNTRGNTYSTAWLCA
[1]
  Binding of Control Serum Blood-Bank to Looped peptides: 0.5
  Binding of Control serum Blood-bank to linear peptides: 0.7
  Binding of Control serum LUMC to linear peptides: 0.6
  Binding of Control serum LUMC to looped peptides: 0.5
[2]
  Rabbit serum linear peptides: 0.7
  Rabbit serum looped peptides: 0.0
[3]
  Binding of serum 1a to linear peptides of protein X5 of SARS-CoV Urbani: 0.8
  Binding of serum 1a to looped/cyclic peptides of protein X5 of SARS-CoV Urbani: 0.3
  Binding of serum 1b to linear peptides of protein X5 of SARS-CoV Urbani: 0.6
  Binding of serum 1b to looped/cyclic peptides of protein X5 of SARS-CoV Urbani: 0.2
  Binding of serum 2 to linear peptides of protein X5 of SARS-CoV Urbani: 0.6
  Binding of serum 2 to looped/cyclic peptides of protein X5 of SARS-CoV Urbani: 0.4
  Binding of serum 6 to linear peptides of protein X5 of SARS-CoV Urbani: 0.8
  Binding of serum 6 to looped/cyclic peptides of protein X5 of SARS-CoV Urbani: 0.4
  Binding of serum 37 to linear peptides of protein X5 of SARS-CoV Urbani: 0.7
  Binding of serum 37 to looped/cyclic peptides of protein X5 of SARS-CoV Urbani: 0.0
  Binding of serum 62 to linear peptides of protein X5 of SARS-CoV Urbani: 0.7
  Binding of serum 62 to looped/cyclic peptides of protein X5 of SARS-CoV Urbani: 0.2
  Binding of serum London to linear peptides of protein X5 of SARS-CoV Urbani: 0.8
  Binding of serum London to looped/cyclic peptides of protein X5 of SARS-CoV Urbani: 0.2
  Binding of serum SARS-green to linear peptides of protein X5 of SARS-CoV Urbani: 0.7
  Binding of serum SARS-green to looped/cyclic peptides of protein X5 of SARS-CoV Urbani: 0.2
  Binding of serum SARS-yellow to linear peptides of protein X5 of SARS-CoV Urbani: 0.4
  Binding of serum SARS-yellow to looped/cyclic peptides of protein X5 of SARS-CoV Urbani: 0.6

## YRIGNYKLNTDHAGS
[1]
  Binding of Control Serum Blood-Bank to Looped peptides of the protein M of SARS-CoV Urbani: 0.6
  Binding of Control serum Blood-bank to linear peptides of the protein M of SARS-CoV Urbani: 0.6
  Binding of Control serum LUMC to linear peptides of the protein M of SARS-CoV Urbani: 0.3
  Binding of Control serum LUMC to looped peptides of the protein M of SARS-CoV Urbani: 0.6
[2]
  Rabbit serum linear peptides: 0.6
  Rabbit serum looped peptides: 0.1
[3]
  Binding of serum 1a to linear peptides of protein M of SARS-CoV Urbani: 0.7
  Binding of serum 1a to looped/cyclic peptides of protein M of SARS-CoV Urbani: 0.8
  Binding of serum 1b to linear peptides of protein M of SARS-CoV Urbani: 0.6
  Binding of serum 1b to looped/cyclic peptides of protein M of SARS-CoV Urbani: 0.6
  Binding of serum 2 to linear peptides of protein M of SARS-CoV Urbani: 0.5
  Binding of serum 2 to looped/cyclic peptides of protein M of SARS-CoV Urbani: 0.5
  Binding of serum 6 to linear peptides of protein M of SARS-CoV Urbani: 0.2
  Binding of serum 6 to looped/cyclic peptides of protein M of SARS-CoV Urbani: 0.8
  Binding of serum 37 to linear peptides of protein M of SARS-CoV Urbani: 0.8
  Binding of serum 37 to looped/cyclic peptides of protein M of SARS-CoV Urbani: 0.7
  Binding of serum 62 to linear peptides of protein M of SARS-CoV Urbani: 0.7
  Binding of serum 62 to looped/cyclic peptides of protein M of SARS-CoV Urbani: 0.6
  Binding of serum London to linear peptides of protein M of SARS-CoV Urbani: 0.5
  Binding of serum London to looped/cyclic peptides of protein M of SARS-CoV Urbani: 0.4
  Binding of serum SARS-green to linear peptides of protein M of SARS-CoV Urbani: 0.2
  Binding of serum SARS-green to looped/cyclic peptides of protein M of SARS-CoV Urbani: 0.3
  Binding of serum SARS-yellow to linear peptides of protein M of SARS-CoV Urbani: 0.1
  Binding of serum SARS-yellow to looped/cyclic peptides of protein M of SARS-CoV Urbani: 0.6

## YRINWVTGGIAIAMA
[1]
  Binding of Control Serum Blood-Bank to Looped peptides of the protein M of SARS-CoV Urbani: 0.7
  Binding of Control serum Blood-bank to linear peptides of the protein M of SARS-CoV Urbani: 0.8
  Binding of Control serum LUMC to linear peptides of the protein M of SARS-CoV Urbani: 0.6
  Binding of Control serum LUMC to looped peptides of the protein M of SARS-CoV Urbani: 0.6
[2]
  Rabbit serum linear peptides: 0.4
  Rabbit serum looped peptides: 0.3
[3]
  Binding of serum 1a to linear peptides of protein M of SARS-CoV Urbani: 0.7
  Binding of serum 1a to looped/cyclic peptides of protein M of SARS-CoV Urbani: 0.6
  Binding of serum 1b to linear peptides of protein M of SARS-CoV Urbani: 0.6
  Binding of serum 1b to looped/cyclic peptides of protein M of SARS-CoV Urbani: 0.4
  Binding of serum 2 to linear peptides of protein M of SARS-CoV Urbani: 0.7
  Binding of serum 2 to looped/cyclic peptides of protein M of SARS-CoV Urbani: 0.6
  Binding of serum 6 to linear peptides of protein M of SARS-CoV Urbani: 0.3
  Binding of serum 6 to looped/cyclic peptides of protein M of SARS-CoV Urbani: 0.5
  Binding of serum 37 to linear peptides of protein M of SARS-CoV Urbani: 0.8
  Binding of serum 37 to looped/cyclic peptides of protein M of SARS-CoV Urbani: 0.5
  Binding of serum 62 to linear peptides of protein M of SARS-CoV Urbani: 0.8
  Binding of serum 62 to looped/cyclic peptides of protein M of SARS-CoV Urbani: 0.6
  Binding of serum London to linear peptides of protein M of SARS-CoV Urbani: 0.3
  Binding of serum London to looped/cyclic peptides of protein M of SARS-CoV Urbani: 0.2
  Binding of serum SARS-green to linear peptides of protein M of SARS-CoV Urbani: 0.3
  Binding of serum SARS-green to looped/cyclic peptides of protein M of SARS-CoV Urbani: 0.0
  Binding of serum SARS-yellow to linear peptides of protein M of SARS-CoV Urbani: 0.1
  Binding of serum SARS-yellow to looped/cyclic peptides of protein M of SARS-CoV Urbani: 0.8

## YSHLLLVAAGMEAQF
[1]
  Binding of Control Serum Blood-Bank to Looped peptides: 0.4
  Binding of Control serum Blood-bank to linear peptides: 0.6
  Binding of Control serum LUMC to linear peptides: 0.5
  Binding of Control serum LUMC to looped peptides: 0.6
[2]
  Binding of a rabbit serum to linear peptides: 0.1
  Binding of a rabbit serum to looped peptides: 0.4
[3]
  Binding of serum 1a to linear peptides of protein X1 of SARS-CoV Urbani: 0.7
  Binding of serum 1a to looped/cyclic peptide (PEPSCAN-ELISA): 0.4
  Binding of serum 1b to linear peptides of protein X1 of SARS-CoV Urbani: 0.6
  Binding of serum 1b to looped/cyclic peptide (PEPSCAN-ELISA): 0.4
  Binding of serum 2 to linear peptides of protein X1 of SARS-CoV Urbani: 0.5
  Binding of serum 2 to looped/cyclic peptide (PEPSCAN-ELISA): 0.5
  Binding of serum 6 to linear peptides of protein X1 of SARS-CoV Urbani: 0.5
  Binding of serum 6 to looped/cyclic peptide (PEPSCAN-ELISA): 0.3
  Binding of serum 37 to linear peptides of protein X1 of SARS-CoV Urbani: 0.6
  Binding of serum 37 to looped/cyclic peptide (PEPSCAN-ELISA): 0.7
  Binding of serum 62 to linear peptides of protein X1 of SARS-CoV Urbani: 0.7
  Binding of serum 62 to looped/cyclic peptide (PEPSCAN-ELISA): 0.5
  Binding of serum London to linear peptides of protein X1 of SARS-CoV Urbani: 0.3
  Binding of serum London to looped/cyclic peptide (PEPSCAN-ELISA): 0.3
  Binding of serum SARS-green to linear peptides of protein X1 of SARS-CoV Urbani: 0.3
  Binding of serum SARS-green to looped/cyclic peptide (PEPSCAN-ELISA): 0.5
  Binding of serum SARS-yellow to linear peptides of protein X1 of SARS-CoV Urbani: 0.4
  Binding of serum SARS-yellow to looped/cyclic peptide (PEPSCAN-ELISA): 0.3
